Data from patent EP0076973A1, “A new dioxolanic compound and its method of preparation; a new dioxolanic amine with pharmacological activity, its method of preparation, and the pharmaceutical compositions containing them” (Investigacion Tecnica y Aplicada, S.A., priority 1981, dated 1983).
Counter-ions that a name gives are not always drawn. Like-named read-outs stand apart in the source and are kept apart here.

Key:
hind quarters of rats = experiment: Vasodilatory activity: perfusion of the hindquarters of rats with a hyperpotasemic solution; type: in vivo, rat; design: ED 25: unit not given here
Source text: In the table 3 is shown the results of the vasodilatory activity of the ITA 362 in the perfusion test of the hindquarters of rats with a hyperpotasemic solution. (F.N.Fastier, F.M. Smirk. Jl. Pharmacolog. Exp. Therapy. 89. 256, 1947).

conscious dog = experiment: Anti-angina activity: amplitude increase protection of the T wave by vasopression in the conscious dog; type: in vivo
Source text: The antiangina activity was also compared with that of the nitroglycerine by means of the amplitude increase protection test of the T wave for vasopression in the conscious dog. ( A.Lindner, M.London, G.Werner, Scheiz. Med.
Wsohr. 83-,- 360, 1953; J.Papp, L. Szekeres. Arch. Int. Pharmacodyn. 160, 1, 1966 ).

male NMRI mouse = experiment: Anti-arrythmic activity: fibrillation by chloroform in the mouse; type: in vivo; details: for ED50: Mus musculus
Source text: Tables 5 and 6 show the anti-arrithmic activity of the ITA 362 in the male NMRI mouse by oral and intraperitoneal route using the fibrillation test by chloroform in the mouse. […] The activity of the two forms of maleate described in the example 2 were studied and which in the table are subtitled as isomer A corresponding to the first fraction obtained in the aforementioned example, and isomer B corresponding to the second fraction.

[1] = Acute toxicity (LD50, method of Litchfield and Wilcoxon) in the mouse; details: in vivo
Experimental: (§1) The respective lethal dose 50 was calculated according to the method of Litchfield and Wilcoxon (Jl. Pharmacol. Exptl. 96 99, 1949 ).

[2] = Acute toxicity (LD50, method of Litchfield and Wilcoxon) in the rat; details: in vivo
Experimental: as §1

[3] = ip, no unit given for ED50 (doses in mg/kg), read-out: ED50 and confidence limits p < 0,05
[4] = ip, intraperitoneal administration, read-out: LD50 and confidence limits
[5] = oral administration, read-out: LD50
[6] = po, no unit given for ED50 (doses in mg/kg), (*) = calculation of limits is not possible, read-out: ED50 and confidence limits p<0,05

SMILES | % drop in pressure (hind quarters of rats; concentration 10^-5 g/ml) | % drop in pressure (hind quarters of rats; concentration 10^-6 g/ml) | % drop in pressure (hind quarters of rats; concentration 10^-7 g/ml) | % drop in pressure (hind quarters of rats; concentration 10^-8 g/ml) | ED50 (male NMRI mouse; [3]) [mg/kg] | % protection versus fibrillation (male NMRI mouse; i.p. 25 mg/kg) [%] | % protection versus fibrillation (male NMRI mouse; i.p. 50 mg/kg, 50 mg/kg) [%] | % protection versus fibrillation (male NMRI mouse; i.p. 100 mg/kg, 100 mg/kg) [%] | % protection versus fibrillation (male NMRI mouse; i.p. 12,5 mg/kg) [%] | % protection versus fibrillation (male NMRI mouse; p.o. 25 mg/kg, 25 mg/kg) [%] | % protection versus fibrillation (male NMRI mouse; p.o. 50 mg/kg, 50 mg/kg) [%] | % protection versus fibrillation (male NMRI mouse; p.o. 100 mg/kg, 100 mg/kg) [%] | % protection versus fibrillation (male NMRI mouse; p.o. 12,5 mg/kg) | % Prot. (conscious dog; dose i.v. 1 mg/kg, 1 mg/kg) | ED50 (male NMRI mouse; [6]) [mg/kg] | further results
O=[N+]([O-])OCC(CO[N+](=O)[O-])O[N+](=O)[O-] [Nitro-glycerine, nitroglycerine, reference compound] | 25,4% | 24,7% | 17,5% | 10,9% |  |  |  |  |  |  |  |  |  |  |  | % Prot. (conscious dog; dose i.v. 0,4 mg/kg): 28,9%; Control quot. treatment (conscious dog; dose i.v. 0,4 mg/kg): 1,520
CCCCNCC1COC(c2ccc(Cl)cc2)(c2cc3ccccc3o2)O1 (single isomer, unassigned) [ITA 362 maleate (isomer A)] |  |  |  |  | 35.3 | 35 | 60 | 70 | 35 | 35 | 70 | 70 | 25% |  |  | 
CCCCNCC1COC(c2ccc(Cl)cc2)(c2cc3ccccc3o2)O1 (stereo not shown) [ITA 362, 2-(2' -benzofuranil)-4-n-butylaminomethyl-2-p-chlorophenyl-1,3-dioxolane] |  |  |  |  |  |  |  |  |  |  |  |  |  | ~50% |  | 
CCCCNCC1COC(c2ccc(Cl)cc2)(c2cc3ccccc3o2)O1 (stereo not shown) [ITA 362 maleate, 2-(2'-benzofuranil) -4-butylaminomethyl--2-p-chlorophenyl-1,3-dioxolane, maleate] |  |  |  |  |  |  |  |  |  |  |  |  |  | 46,8% |  | LD50 [1, 4]: 106 mg/kg; LD50 [1, 5]: > 4000 mg/kg; Control quot. treatment (conscious dog; dose i.v. 1 mg/kg): 1,893; LD50 [2, 4]: 105 mg/kg; LD50 [2, 5]: > 4000 mg/kg
CCCCNCC1COC(c2ccc(Cl)cc2)(c2cc3ccccc3o2)O1 (single isomer, unassigned) [ITA 362 maleate (isomer B)] |  |  |  |  |  | 35 | 70 | 95 | 40 | 55 | 45 | 85 | 35% |  | 27.6 | ED50 and confidence limits p < 0,05 (male NMRI mouse; route i.p., no unit given for ED50 (doses in mg/kg)): 24,5 (16,11 37,20)
CCCCNCC1COC(c2ccc(Cl)cc2)(c2cc3ccccc3o2)O1 (stereo not shown) [ITA 362 citrate] | 33,6% | 16,3% | 12,7% | 12,5% | 41.4 | 40 |  |  | 25 |  |  |  | 31,6% |  | 43.2 | ED 25 (hind quarters of rats; from concentrations 10^-5 to 10^-8 g/ml, correlation r printed in the same cell): 2,61; % protection versus fibrillation (male NMRI mouse; i.p. 50 mg/kg): 35%; % protection versus fibrillation (male NMRI mouse; i.p. 100 mg/kg): 84,2%; % protection versus fibrillation (male NMRI mouse; p.o. 25 mg/kg): 45%; % protection versus fibrillation (male NMRI mouse; p.o. 50 mg/kg): 55%; % protection versus fibrillation (male NMRI mouse; p.o. 100 mg/kg): 55%; % protection versus fibrillation (male NMRI mouse; p.o. 3,125 mg/kg): 10%; % protection versus fibrillation (male NMRI mouse; p.o. 6,25 mg/kg): 42,1%
